From patent publication US20250129070A1, “BIFUNCTIONAL ANDROGEN RECEPTOR COMPOUNDS” (priority 2023, published 2025)
pEC50, pIC50: −log10 of the molar value.

Columns and labels:
VCaP cells = experiment: VCaP growth inhibition assay; type: cell-based; conditions: 30 pM R1881, 9 days, CTG
Procedure, shortened: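 Growth read by CTG luminescence after 9-day exposure to compound (final 100 nM–10 fM, 1:5 steps) plus 30 pM R1881, in phenol red-free DMEM with 5% CSS. Cells pre-incubated 72 h before dosing; IC50 by nonlinear 4-parameter regression.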

AR / CBP ternary complex = experiment: Ternary complex formation assay (sandwich ELISA, AR capture / CBP detection) in VCaP cell lysates; type: cell-based; conditions: 1.5 hours treatment, sandwich ELISA (AR capture, CBP or p300 detection)
Procedure, shortened: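 Anti-AR (AR 441)-coated plates capture AR from lysates of VCaP cells grown ≥3 days at 50K/well in 5% charcoal-stripped FBS, dosed with bifunctional for 1.5 h and lysed 30 min at 4 °C. Co-captured CBP/p300 is probed with rabbit mAb and HRP anti-rabbit, then QuantaRed fluorescence (570/585) is read at 0, 5 and 15 min.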

| SMILES | pIC50 (VCaP cells) | pEC50 (AR / CBP ternary complex) |
| --- | --- | --- |
| CC(=O)N1CCc2c(c(N3CCCc4cc(-c5cnn(C)c5)c(C(F)F)cc43)nn2C2CC3(C2)CC2(CCN(c4ncc(C(=O)NC5C(C)(C)C(Oc6ccc(C#N)c(Cl)c6)C5(C)C)cn4)CC2)C3)C1 (stereo not shown) [Compound 287, 2-[2-[5-acetyl-3-[7-(difluoromethyl)-6-(1-methylpyrazol-4-yl)-3,4-dihydro-2H-quinolin-1-yl]-6,7-dihydro-4H-pyrazolo[4,3-c]pyridin-1-yl]-9-azadispiro[3.1.5^6.1^4]dodecan-9-yl]-N-[3-(3-chloro-4-cyano-phenoxy)-2,2,4,4-tetramethyl-cyclobutyl]pyrimidine-5-carboxamide] | 7.00 to 9.00 | 8.00 to 9.00 |
| CC(=O)N1CCc2c(c(N3CCCc4cc(-c5cnn(C)c5)c(C(F)F)cc43)nn2C2CCN(C3CC4(CC(Oc5ncc(C(=O)NC6C(C)(C)C(Oc7ccc(C#N)c(Cl)c7)C6(C)C)cn5)C4)C3)CC2)C1 (stereo not shown) [Compound 385, 2-[6-[4-[5-acetyl-3-[7-(difluoromethyl)-6-(1-methylpyrazol-4-yl)-3,4-dihydro-2H-quinolin-1-yl]-6,7-dihydro-4H-pyrazolo[4,3-c]pyridin-1-yl]-1-piperidyl]spiro[3.3]heptan-2-yl]oxy-N-[3-(3-chloro-4-cyano-phenoxy)-2,2,4,4-tetramethyl-cyclobutyl]pyrimidine-5-carboxamide] | 9.00 to 10.00 | > 9.00 |
| COc1cc(OC2C(C)(C)C(NC(=O)c3ccc(N4CCC(C(=O)N5CCC(n6nc(-c7cccc8cc(C9CC9)ncc78)c7c6CCN(C(C)=O)C7)CC5)CC4)cc3)C2(C)C)ccc1C#N (stereo not shown) [Compound 256, 4-[4-[4-[5-acetyl-3-(3-cyclopropyl-8-isoquinolyl)-6,7-dihydro-4H-pyrazolo[4,3-c]pyridin-1-yl]piperidine-1-carbonyl]-1-piperidyl]-N-[3-(4-cyano-3-methoxy-phenoxy)-2,2,4,4-tetramethyl-cyclobutyl]benzamide] | 9.00 to 10.00 | > 9.00 |
| COc1cc(OC2C(C)(C)C(NC(=O)c3ccc(N4CCC(OC5CCC(n6nc(N7CCCc8cc(-c9cnn(C)c9)c(C(F)F)cc87)c7c6CCN(C(C)=O)C7)CC5)CC4)cc3)C2(C)C)ccc1C#N (stereo not shown) [Compound 309, 4-[4-[4-[5-acetyl-3-[7-(difluoromethyl)-6-(1-methylpyrazol-4-yl)-3,4-dihydro-2H-quinolin-1-yl]-6,7-dihydro-4H-pyrazolo[4,3-c]pyridin-1-yl]cyclohexoxy]-1-piperidyl]-N-[3-(4-cyano-3-methoxy-phenoxy)-2,2,4,4-tetramethyl-cyclobutyl]benzamide] | 9.00 to 10.00 | > 9.00 |
| CC(=O)N1CCc2c(c(N3CCCc4cc(-c5cnn(C)c5)c(C)cc43)nn2C2CCN(CC3CCN(c4ncc(C(=O)NC5C(C)(C)C(Oc6ccc(C#N)c(Cl)c6)C5(C)C)cn4)CC3)CC2)C1 (stereo not shown) [Compound 26, 2-[4-[[4-[5-acetyl-3-[7-methyl-6-(1-methylpyrazol-4-yl)-3,4-dihydro-2H-quinolin-1-yl]-6,7-dihydro-4H-pyrazolo[4,3-c]pyridin-1-yl]-1-piperidyl]methyl]-1-piperidyl]-N-[3-(3-chloro-4-cyano-phenoxy)-2,2,4,4-tetramethyl-cyclobutyl]pyrimidine-5-carboxamide] | 9.00 to 10.00 | > 9.00 |

The remaining lines, values ahead:

| pIC50 (VCaP cells) | pEC50 (AR / CBP ternary complex) | SMILES |
| --- | --- | --- |
| ≥ 10.00 | > 9.00 | COc1cc(OC2C(C)(C)C(NC(=O)c3ccc(N4CCC(CN5CCC(n6nc(N7CCCc8cc(-c9cnn(C)c9)c(C(F)F)cc87)c7c6CCN(C(C)=O)C7)CC5)CC4)cc3)C2(C)C)ccc1C#N (stereo not shown) [Compound 185, 4-[4-[[4-[5-acetyl-3-[7-(difluoromethyl)-6-(1-methylpyrazol-4-yl)-3,4-dihydro-2H-quinolin-1-yl]-6,7-dihydro-4H-pyrazolo[4,3-c]pyridin-1-yl]-1-piperidyl]methyl]-1-piperidyl]-N-[3-(4-cyano-3-methoxy-phenoxy)-2,2,4,4-tetramethyl-cyclobutyl]benzamide] |
| ≥ 10.00 | > 9.00 | COc1cc(OC2C(C)(C)C(NC(=O)c3ccc(N4CCN(CCc5ccc(-c6cc7cccc(-c8nn(C9CCOCC9)c9c8CN(C(C)=O)CC9)c7cn6)cn5)CC4)cc3)C2(C)C)ccc1C#N (stereo not shown) [Compound 250, 4-[4-[2-[5-[8-(5-acetyl-1-tetrahydropyran-4-yl-6,7-dihydro-4H-pyrazolo[4,3-c]pyridin-3-yl)-3-isoquinolyl]-2-pyridyl]ethyl]piperazin-1-yl]-N-[3-(4-cyano-3-methoxy-phenoxy)-2,2,4,4-tetramethyl-cyclobutyl]benzamide] |
| 9.00 to 10.00 | 7.00 to 8.00 | CC(=O)N1CCc2c(c(N3CCCc4cc(-c5cnn(C)c5)c(C(F)F)cc43)nn2C2CN(C3CCN(c4ncc(C(=O)NC5C(C)(C)C(Oc6ccc(C#N)c(Cl)c6)C5(C)C)cn4)CC3)C2)C1 (stereo not shown) [Compound 11, 2-[4-[3-[5-acetyl-3-[7-(difluoromethyl)-6-(1-methylpyrazol-4-yl)-3,4-dihydro-2H-quinolin-1-yl]-6,7-dihydro-4H-pyrazolo[4,3-c]pyridin-1-yl]azetidin-1-yl]-1-piperidyl]-N-[3-(3-chloro-4-cyano-phenoxy)-2,2,4,4-tetramethyl-cyclobutyl]pyrimidine-5-carboxamide] |
| ≥ 10.00 | > 9.00 | CC(=O)N1CCc2c(c(N3CCCc4cc(-c5cnn(C)c5)c(C(F)F)cc43)nn2C2CC3(C2)CN(CC2CC4(C2)CN(c2ncc(C(=O)NC5C(C)(C)C(Oc6ccc(C#N)c(Cl)c6)C5(C)C)cn2)C4)C3)C1 (stereo not shown) [Compound 216, 2-[6-[[6-[5-acetyl-3-[7-(difluoromethyl)-6-(1-methylpyrazol-4-yl)-3,4-dihydro-2H-quinolin-1-yl]-6,7-dihydro-4H-pyrazolo[4,3-c]pyridin-1-yl]-2-azaspiro[3.3]heptan-2-yl]methyl]-2-azaspiro[3.3]heptan-2-yl]-N-[3-(3-chloro-4-cyano-phenoxy)-2,2,4,4-tetramethyl-cyclobutyl]pyrimidine-5-carboxamide] |
| ≥ 10.00 | > 9.00 | COc1cc(OC2C(C)(C)C(NC(=O)c3ccc(N4CCC(N5CCC(n6nc(N7CCCc8cc(-c9cnn(C)c9)c(C(F)F)cc87)c7c6CCN(C(C)=O)C7)CC5)CC4)cc3)C2(C)C)ccc1C#N (stereo not shown) [Compound 277, 4-[4-[4-[5-acetyl-3-[7-(difluoromethyl)-6-(1-methylpyrazol-4-yl)-3,4-dihydro-2H-quinolin-1-yl]-6,7-dihydro-4H-pyrazolo[4,3-c]pyridin-1-yl]-1-piperidyl]-1-piperidyl]-N-[3-(4-cyano-3-methoxy-phenoxy)-2,2,4,4-tetramethyl-cyclobutyl]benzamide] |
| ≥ 10.00 | > 9.00 | COc1cc(OC2C(C)(C)C(NC(=O)c3ccc(N4CC5(CCN(C6CCC(n7nc(N8CCCc9cc(-c%10cnn(C)c%10)c(C(F)F)cc98)c8c7CCN(C(C)=O)C8)CC6)CC5)C4)cc3)C2(C)C)ccc1C#N (stereo not shown) [Compound 288, 4-[7-[4-[5-acetyl-3-[7-(difluoromethyl)-6-(1-methylpyrazol-4-yl)-3,4-dihydro-2H-quinolin-1-yl]-6,7-dihydro-4H-pyrazolo[4,3-c]pyridin-1-yl]cyclohexyl]-2,7-diazaspiro[3.5]nonan-2-yl]-N-[3-(4-cyano-3-methoxy-phenoxy)-2,2,4,4-tetramethyl-cyclobutyl]benzamide] |
